Experimental data as given in ChEMBL document CHEMBL1157174, “Electronically stabilized versions of the antimalarial acetal trioxanes artemether and artesunate” (Bioorg Med Chem, 2008).
The source made the active and inactive calls. No cut-off for these calls is given here.

system: Plasmodium berghei; test: Antimalarial activity against Plasmodium berghei infected mice (Mus musculus) at 30 mg/kg peroral dose; format: functional, organism-based; set-up: dose 30 mg/kg

Question: How did the Activity turn out when `CCCCCCCCCCCCCCCCCC(=O)O[C@@H]1O[C@@H]2O[C@]3(C)CC[C@H]4[C@H](C)CC[C@H]([C@@]24OO3)[C@@]1(C)S(C)(=O)=O` was run?
Answer: Its Activity is “inactive”.

Question: For `CO[C@@H]1O[C@@H]2O[C@]3(C)CC[C@H]4[C@H](C)CC[C@@H]([C@@]1(C)F)[C@@]24OO3`, which Activity is on record?
Answer: The Activity was “inactive”.

Question: Which Activity does the source give for `CO[C@H]1O[C@@H]2O[C@]3(C)CC[C@H]4[C@H](C)CC[C@@H]([C@@]1(C)F)[C@@]24OO3` here?
Answer: The Activity was “inactive”.

Question: Which Activity does the source give for `C[C@@H]1CC[C@@H]2[C@]34OO[C@@](C)(CC[C@@H]13)O[C@H]4OC(O)[C@]2(C)F` (stereo partly specified) here?
Answer: Its Activity is “inactive”.

Question: `CCCCCc1ccc(C(=O)O[C@@H]2O[C@@H]3O[C@]4(C)CC[C@H]5[C@H](C)CC[C@H]([C@@]35OO4)[C@@]2(C)S(=O)(=O)c2ccccc2)cc1` was tested. Which Activity did it give?
Answer: Its Activity is “inactive”.

Question: `C[C@@H]1CC[C@@H]2[C@]34OO[C@@](C)(CC[C@@H]13)O[C@H]4OC(=O)[C@@]2(C)S(C)(=O)=O` was tested. Which Activity did it give?
Answer: The Activity was “inactive”.

Question: `C[C@@H]1CC[C@@H]2[C@]34OO[C@@](C)(CC[C@@H]13)O[C@H]4O[C@H](O)[C@@]2(C)S(C)(=O)=O` was tested. Which Activity did it give?
Answer: Its Activity is “inactive”.

Question: For `CCCCCCCCCCc1ccc(C(=O)O[C@@H]2O[C@@H]3O[C@]4(C)CC[C@H]5[C@H](C)CC[C@H]([C@@]35OO4)[C@@]2(C)S(C)(=O)=O)cc1`, which Activity is on record?
Answer: The Activity was “inactive”.

Question: `C[C@@H]1CC[C@@H]2[C@]34OO[C@@](C)(CC[C@@H]13)O[C@H]4O[C@@H](O)[C@]2(C)S(C)(=O)=O` was tested. Which Activity did it give?
Answer: Its Activity is “inactive”.

Question: How did the Activity turn out when `C[C@@H]1CC[C@@H]2[C@]34OO[C@@](C)(CC[C@@H]13)O[C@H]4OC(=O)[C@]2(C)S(C)(=O)=O` was run?
Answer: The Activity was “inactive”.

Question: Which Activity does the source give for `C[C@@H]1CC[C@@H]2[C@]34OO[C@@](C)(CC[C@@H]13)O[C@H]4O[C@@H](O)[C@]2(C)S(=O)(=O)c1ccccc1` here?
Answer: The Activity was “inactive”.
